In paper PMC10949195, “Exponential Combination of a and e/g Intracellular Peptide Libraries Identifies a Selective ATF3 Inhibitor” (ACS Chemical Biology, 2024):

T1: ATF3 (Homo sapiens, UniProt P18847)
T1 construct: We focus on the selective targeting of the ATF3 leucine zipper dimerization domain using intracellular peptide library screening; made in house; host or cells: chemical solid-phase peptide synthesis (no expression host)
T1 sequence (P18847 110-143): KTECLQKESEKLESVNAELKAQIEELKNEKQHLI

T2: ATF3W_aeg (synthetic construct)
T2 chain: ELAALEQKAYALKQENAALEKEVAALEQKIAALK


Assays:
ATF3 = molecular target: T1, ATF3; test: CD thermal denaturation of peptide mixed 1:1 with ATF3; type: binding; settings: peptide incubated with ATF3; CD signal at 222 nm, 1 °C increments; 150 μM total peptide; 10 mM potassium phosphate, 100 mM potassium fluoride, pH 7.0; two-state denaturation model
Source text: Following the observed significant increase in global secondary structure content for the ATF3-ATF3W_aeg complex relative to component peptides (Figure 6), we next analyzed the stability of the complex by undertaking thermal denaturation experiments (Figure 7). […] Moreover, consistent with spectral data, the clear increase from the average profile of the component peptides relative to that of the measured is most pronounced in the combined construct (Figure 7, red hash vs black). This provides robust additional evidence for a preferential interaction between ATF3 and ATF3W_aeg that is improved over either the core a or electrostatic e/g constructs.
Shown are thermal stabilities of peptide pairs measured via temperature dependence of the CD signal at 222 nm. The thermal denaturation profiles for (a) ATF3-ATF3W_a, (b) ATF3-ATF3W_eg, and (c) ATF3-ATF3W_aeg show a substantial increase in the transition midpoint (Tm = 59 °C) relative to component peptides (black vs red hash). Experiments were performed in 10 mM potassium phosphate and 100 mM potassium fluoride (pH 7.0). All spectra were recorded at 1 °C increments at a total peptide concentration of 150 μM and fitted to a two-state denaturation model.
Thermal denaturation experiments were performed at 150 μM total protein concentration in 10 mM potassium phosphate and 100 mM potassium fluoride, pH 7, using an Applied Photophysics Chirascan CD instrument (Leatherhead, UK) as previously described.[23]

[1] = test system: M2 macrophages differentiated from the human THP-1 monocytic cell line; test: THP-1 polarization assay and CCL-4 ELISA; type: cell-based; settings: M2 macrophages from THP-1 (IL-4 polarized); 20 μM peptide with NLS-TAT appendage; 48 h; versus untreated
Source text: ATF3 is a transcriptional repressor that regulates both the extent and duration of pro-inflammatory gene expression.[17] Specifically, ATF3 has been implicated in the transcriptional repression of chemokines including chemokine (C–C motif) ligand 4 (CCL4),[18] also known as macrophage inflammatory protein (MIP-1β), which promotes recruitment of additional immune cells to inflamed tissues. In the context of cancer, ATF3 activity counters antitumor immunity and promotes tumor growth. We therefore explored the effect of the ATF3W-aeg antagonist peptide on CCL4 expression in M2 anti-inflammatory macrophages differentiated from the human THP-1 monocytic cell line. […]
Figure 10 ATF3W-aeg peptide stimulates expression of pro-inflammatory cytokine in M2 macrophages. CCL4 protein levels were measured by ELISA from supernatants of M2 macrophage cultures treated with either 20 μM ATF3W-aeg or negative control peptide (****p < 0.0001). […]
THP-1 cells were seeded in 12-well format at a concentration of 5 × 10^5 cells/well and treated with 7.5 ng/mL Phorbol 12-Myristate 13-Acetate (PMA, Sigma-Aldrich) in RPMI media supplemented with 10% FBS and 55 μM β-mercaptoethanol (BME). […] After 48 h, supernatants were collected and clarified by centrifugation, and the CCL-4 concentration was assessed by ELISA (MIP-1b Human Instant ELISA Kit, ThermoFisher Scientific) according to the manufacturer’s protocol.

ATF3W_aeg = molecular target: T2, ATF3W_aeg; test: ITC

Row | Molecule | transition midpoint (Tm) of heterodimer with ATF3 (ATF3) [°C] | also measured
1 | EAAALEQKIYALKQEAAALEKEIAALEQKAAALK [ATF3W_eg] | 52 | 
2 | Ac-KAAALKQKAYALKQQIAALKKQVAALKQKIAALKPKKKRKVYGRKKRRQRRR-NH2 [Fra1W-NLS TAT, reference compound] |  | effect on CCL4 expression (protein in supernatant, ELISA) [1]: no effect
3 | QLAALQQQAYALQQQNAALQKQVAALQQQIAALQ [ATF3W_a] | 26 | 
4 | TECLQKESEKLESVNAELKAQIEELKNEKQHLIYM [ATF3 leucine zipper] |  | Kd (ATF3W_aeg): 151 nM
